For data set [1], the system named is Hepatitis B virus. In words: Antiviral activity against HBV infected in human HepG2-NTCP12 cells assessed as inhibition of extracellular HBV DNA incubated for 2 weeks by SYBR green dye based quantitative PCR analysis. The note with it: HepG2-NTCP12, 336 h. The data set is classed as functional, organism-based.
Data set [2] can be described thus: Cytotoxicity against human primary hepatocytes assessed as cell viability incubated for 72 hrs by LDH release assay. The data set is classed as toxicity, cell-based, Hepatocyte. In general terms: Release of lactate dehydrogenase indicates damage to the cell membrane.
A short description of data set [3]: Cytotoxicity against human primary hepatocytes assessed as cell viability incubated for 72 hrs by MTS assay. The data set is classed as toxicity, cell-based, Hepatocyte. (In general: Formazan colour is commonly taken as a measure of viable cells.)
The nature of data set [4]: Cytotoxicity against human HepDES19 cells assessed as reduction in cell viability incubated for 1 hr by MTS assay. The data set is classed as functional.
Data set [5] is described as follows: Cytotoxicity against human HEK293 cells assessed as reduction in cell viability incubated for 1 hr by MTS assay. It is filed as toxicity, cell-based.
In data set [6] the test system is Hepatitis B virus. Nature of the data set: Antiviral activity against HBV infected in human HepDES19 cells assessed as inhibition of extracellular HBV DNA by qPCR analysis. The data set is classed as functional, organism-based. For orientation: Real-time PCR tracks product formation cycle by cycle.
The nature of data set [7]: Cytotoxicity against human LX2 cells assessed as reduction in cell viability incubated for 1 hr by MTS assay. The following applies: LX-2 cells. It is filed as toxicity, cell-based.
Data set [8] concerns Hepatitis B virus. In words: Antiviral activity against HBV infected in human HepG2 2.2.15 cells assessed as reduction on HBsAg level incubated for 5 days. Also noted: concentration or dose not given beside the values. The note with it: time 5 day. It is filed as functional.
The subject of another data set is HepG2. Nature of the data set: Cytotoxicity against human HepG2 cells assessed as cell viability incubated for 12 days by WST-1 assay. The data set is classed as functional. The following applies: HepG2, 288 h, time 12 day.
Data set [9] is described as follows: Cytotoxicity against human HepG2-hNTCP cells assessed as reduction in cell viability incubated for 3 days by celltiter glo assay. The data set is classed as functional. The note with it: 72 h, time 3 day.
Data set [10] is described as follows: Cytotoxicity against human HB611 cells assessed as reduction in cell viability incubated for 3 days by celltiter glo assay. It is filed as functional. The note with it: HB611, 72 h, time 3 day.
The subject of data set [11] is Hepatitis B virus. Nature of the data set: Antiviral activity against HBV infected in human HepG2-hNTCP cells assessed as reduction in HBV DNA replication by qRT-PCR analysis. The data set is classed as functional, organism-based.
Data set [12] concerns Hepatitis B virus. Nature of the data set: Antiviral activity against HBV transfected in human HB611 cells assessed as reduction of HBV DNA replication incubated for 5 days by q-PCR analysis. It is filed as functional, organism-based. The following applies: HB611, 120 h.
Data set [13] concerns Hepatitis B virus. Nature of the data set: Antiviral activity against HBV transfected in human HB611 cells. The data set is classed as functional, organism-based.
Data set [14] is described as follows: Inhibition of HBV RNA polymerase. Also noted: species or system Hepatitis B virus.
The nature of data set [15]: Cytotoxicity against human HB611 cells assessed as reduction in cell viability incubated for 6 to 9 days by celltiter-glo assay. It is filed as functional. The note with it: time 6-9 day.
For data set [16], the system named is Hepatitis B virus. In words: Antiviral activity against HBV infected in human HepDES19 cells assessed as reduction in HBV replication. It is filed as functional, organism-based.
Data set [17] relates to Hepatitis B virus. In words: Antiviral activity against HBV infected in human HepDES19 cells assessed as inhibition of HBV replication by qPCR analysis. The data set is classed as functional, organism-based.

For `C/C(=N\OCc1ccc(F)cc1)c1c(C)cc(=O)n(O)c1O`, the EC50 (usually the concentration giving half of the maximal effect) in the data set on Hepatitis B virus [1] is 49 nM. In addition, the CC50 at 72 h in data set [2] and in data set [3] was over 100000 nM in each case.
With `COC(=O)c1c(CCl)cc(O)c(=O)c(O)c1C(=O)OC`, in data set [4], the CC50 (usually the concentration giving 50% cytotoxicity) is over 80000 nM. Besides, the CC50 at 1 h in data set [5] and in data set [7] was over 100000 nM throughout. The EC50 in the data set with Hepatitis B virus [6] was 400 nM.
As to `Cc1c(O)c2cc(Br)cnc2n(O)c1=O`, in the data set on Hepatitis B virus [1], the EC50 stood at 49 nM. The CC50 at 72 h in data set [2] and in data set [3] was over 100000 nM throughout.
For `O=c1ccc2cc3ccoc3cc2o1` [PSORALEN], in the data set on Hepatitis B virus [8], the Activity is 62%.
For the molecule `O=C(CCc1ccc(O)c(O)c1)OCCc1ccc(O)c(O)c1`, in the data set with HepG2, the CC50 was 229000 nM.
For `O=C1OCc2cc(O)c(=O)c(O)cc21`, the CC50 in data set [4] is over 100000 nM. In addition, the CC50 at 1 h in [5] and in data set [7] was over 100000 nM each time. The EC50 in the data set on Hepatitis B virus [6] was 600 nM.
As to `N=C(N)SCCc1ccc(OCc2ccc([N+](=O)[O-])cc2)cc1`, the results for the CC50 in [9] and in data set [10] were 37400 nM and 41900 nM, respectively. Besides, the IC50 – broadly, the point on the concentration scale where inhibition reaches its midpoint – in the data set on Hepatitis B virus [11] was found to be 7310 nM.
Turning to `O=C(/C=C/c1ccc(O)c(O)c1)NCCc1ccc(O)c(O)c1`, the CC50 in the data set on HepG2 is 229000 nM.
Take `CCCCCCCC/C=C\CCCCCCCC(=O)NCCc1ccc(O)c(O)c1` [OLEOYL DOPAMINE]: the IC50 in the data set on Hepatitis B virus [12] was 100 nM; in data set [14], 410 nM. In addition, a half-maximal response in the data set on Hepatitis B virus [13] (EC50) required 130 nM. Moreover, the CC50 in data set [15] amounted to 900 nM.
Turning to `NC(Cc1cc(O)c(O)cc1O)C(=O)O` (centres undefined), the values for the IC50 (in the data set with Hepatitis B virus [12]; in data set [14]) were 21000 nM and 6600 nM, respectively. This molecule registered an EC50 with Hepatitis B virus [13] of 16100 nM. Also, the CC50 in data set [15] was found to be 66000 nM.
For `O=C(/C=C/c1ccc(O)c(O)c1/C=C/c1ccc(O)c(O)c1)O[C@H](Cc1ccc(O)c(O)c1)C(=O)O` [SALVIANOLIC ACID A], in the data set on HepG2, the CC50 stood at 86000 nM.
As for `CC(=NOCc1ccc(F)cc1)c1c(C)cc(=O)n(O)c1O`, the EC50 with Hepatitis B virus [16] came to 110 nM.
Still for that read-out and setting: the result for `COc1ccccc1CON=C(C)c1c(C)cc(=O)n(O)c1O` reads 110 nM.
As for `O=C(/C=C/c1ccc(O)c(O)c1)OCCc1ccc(O)c(O)c1`, in the data set with HepG2, the CC50 came to 229000 nM.
As for `O=c1c(O)c(-c2ccc(O)c(O)c2)oc2cc(O)cc(O)c12` [QUERCETIN], the Activity with Hepatitis B virus [8] was found to be 62%.
Regarding `CC(=NOc1ccc(F)cc1)c1c(C)cc(=O)n(O)c1O`, the EC50 in the data set on Hepatitis B virus [16] turned out to be 110 nM.
Still for that read-out and setting: the result for `CC(=NOCc1ccc(C)cc1)c1c(C)cc(=O)n(O)c1O` reads 110 nM.
Regarding `Cc1ccc(CNC(=O)C2C(=O)N(O)C(=O)c3cc(NC(=O)c4ccccc4)ccc32)cc1` (centres undefined), in the data set with Hepatitis B virus [17], the EC50 came out at 690 nM.
Still for that read-out and setting: the result for `COc1ccc(CNC(=O)C2C(=O)N(O)C(=O)c3cc([N+](=O)[O-])ccc32)cc1` (centres undefined) reads 690 nM.
For the molecule `C/C=C(\C)C(=O)O[C@H]1C[C@@H](OC(C)=O)[C@@]2(C(=O)OC)CO[C@H]3[C@@H](O)[C@@](C)([C@]45O[C@@]4(C)[C@H]4C[C@@H]5O[C@@H]5OC=C[C@@]54O)[C@H]4[C@]1(CO[C@]4(O)C(=O)OC)[C@@H]32` [AZADIRACTIN], the Activity in the data set on Hepatitis B virus [8] is listed as 62%.
The same measure, in the same setting: the result for `CC(=O)O[C@H]1C(=O)[C@@]2(C)[C@H]([C@H](OC(=O)c3ccccc3)[C@]3(O)C[C@H](O)C(C)=C1C3(C)C)[C@]1(OC(C)=O)CO[C@@H]1C[C@@H]2O` [BACCATIN III] reads 62%.
Consider `O=C(NCc1ccccc1)C1C(=O)N(O)C(=O)c2ccccc21` (centres undefined), for which the EC50 with Hepatitis B virus [17] came to 690 nM.
Consider `CC(=NOCc1ccccc1N)c1c(C)cc(=O)n(O)c1O`, for which, in the data set with Hepatitis B virus [16], the EC50 was determined as 110 nM.
As for `CCN(CC)C(=O)C1C(=O)N(O)C(=O)c2ccccc21` (centres undefined), in the data set on Hepatitis B virus [17], the EC50 was determined as 690 nM.
For the molecule `COc1ccc(CNC(=O)C2C(=O)N(O)C(=O)c3ccccc32)cc1` (centres undefined), the EC50 with Hepatitis B virus [17] was found to be 690 nM.
Turning to `CC(=NOCc1ccccc1)c1c(C)cc(=O)n(O)c1O`, the EC50 with Hepatitis B virus [16] worked out at 110 nM.

For the origin of these results see ChEMBL document CHEMBL5620351, “Advancing beyond reverse transcriptase inhibitors: The new era of hepatitis B polymerase inhibitors” (Eur J Med Chem, 2023).
